{"source": "paper PMC9298194", "about": "“Clinical Pharmacokinetics of Daprodustat: Results of an Absorption, Distribution, and Excretion Study With Intravenous Microtracer and Concomitant Oral Doses for Bioavailability Determination” (Clinical Pharmacology in Drug Development, 2021)", "key": {"[1]": {"conditions": "ref GSK data on file; cited from earlier work"}, "[2]": {"assay": "Safety and tolerability (adverse events) in healthy male participants", "type": "in vivo, human", "conditions": "for deaths or serious adverse events: 6 healthy men", "excerpt": "Safety and tolerability measures included assessment of adverse events (AEs), serious adverse events (SAEs), clinical laboratory findings, vital signs (systolic and diastolic blood pressure and pulse rate), ECGs, and concurrent medications. An AE was defined as any untoward medical occurrence in a participant temporally associated with the use of an investigational product, whether or not considered related to the investigational product. […] The investigator or site staff was responsible for detecting, documenting, and reporting events that met the definition of an AE or SAE."}, "[3]": {"assay": "Blood and plasma total radioactivity pharmacokinetics after [14C]-GSK1278863", "type": "in vivo, human", "conditions": "for tmax, total radioactivity: median (range)", "experimental": "As per standard practice for administration of radiolabeled drug, the IV and oral dosing solutions were analyzed for daprodustat via assessment of the radioactivity and through application of the predetermined specific activity. Whole blood samples were collected for measurement of each of the following: blood total radioactivity in period 2 and plasma total radioactivity in period 1, plasma concentrations of daprodustat, and the 6 predominant circulating metabolites in periods 1 and 2. Blood samples were collected at 1, 3, and 6 hours after dosing for blood assessments. Blood samples were collected for plasma assessments before dosing and at 0.50, 1, 1.25, 1.5, 2, 3, 4, 6, 8, 10, 12, 24, 36, 48, 72, 96, 120, and 144 hours after dosing.\nWhole blood samples for unlabeled assays were collected into K3 ethylenediaminetetraacetic acid tubes, gently inverted several times and immediately placed on ice water. Samples were then centrifuged at 1500 × g for 15 minutes; the supernatant plasma was transferred to Nunc tubes and stored at −20°C before shipment. Samples for unlabeled daprodustat and specific assay metabolite measurements were shipped frozen to PPD Laboratories (Middleton, Wisconsin). Samples for radioactivity measurements were shipped frozen to either GSK Research and Development (Ware, Hertfordshire, UK; period 1) or Covance (period 2). Some period 2 plasma samples were subsequently analyzed by accelerator mass spectrometry (AMS) at Ware (UK) after being not quantifiable by LSC analysis.\nHuman urine, feces, and blood samples from treatment period 2 were analyzed by Covance using LSC. The LLQ for urine using LSC was 5.63 ng Eq/mL, using a 1000 μL aliquot of human urine. The LLQ for blood using LSC was 11.6 ng Eq/mL, using a 400 μL aliquot of human blood. The LLQ for feces using LSC was 25.3 ng Eq/mL, using a 0.2‐ to 0.4‐g aliquot of human feces. Treatment period 2 plasma samples that were not quantifiable following LSC analysis at Covance were subsequently reanalyzed for total radioactivity by AMS at GSK. The LLQ using AMS was 15.8 pg Eq/mL, using a 50 μL aliquot of human plasma.\nPlasma daprodustat and [^14C]‐GSK1278863 plasma and blood total radioactivity concentration‐time data were analyzed by noncompartmental methods with WinNonlin Version 6.3 or above (Certara, Princeton, New Jersey). Calculations were based on the actual sampling times recorded during the study. From the plasma concentration‐time data, the following PK parameters were determined for daprodustat, its metabolites, [^14C]‐GSK1278863, and total radioactivity, as the data permitted: maximum observed plasma concentration (Cmax), time to Cmax (tmax), area under the plasma concentration–time curve (AUC) from time 0 to the last measurable concentration (AUC0‐t), AUC from time 0 extrapolated to infinity (AUC0–inf), and apparent terminal phase half‐life (t½), following oral and IV dosing. Additionally, daprodustat volume of distribution at steady state (Vss) and the total systemic clearance (CL) were derived following IV dosing, and daprodustat absolute bioavailability (F) was determined from the oral tablet and IV plasma PK data from treatment period 1 with the following equation: F=AUCpo/AUCIV×doseIV/dosepo\nTo assess relative exposure levels between parent daprodustat and the measured metabolites, the ratio of parent daprodustat/total radioactivity was calculated for the plasma PK parameters following IV and oral administration of [^14C]‐GSK1278863: Cmax, AUC0‐t, and AUC0‐inf."}, "[4]": {"conditions": "human; ref internal GSK reports; cited from earlier work"}, "[5]": {"conditions": "coadministered with gemfibrozil; cited from earlier work"}, "[6]": {"conditions": "healthy volunteers; cited from earlier work"}, "[7]": {"conditions": "Period 1: 6‐mg oral tablet + 50‐μg IV"}, "[8]": {"conditions": "IV infusion, plasma, mean (SD), n = 5"}, "[9]": {"conditions": "oral solution, plasma, mean (SD)"}}, "note": "Several values for one entry are separate records, joined by “and”; a condition that tells them apart may be missing. Identical values can stand only once. Marks after values point to notes of the source that are not given here.", "data": [{"compound": "O=C(O)CNC(=O)C1C(=O)N(C2CCCCC2)C(=O)N(C2CCCCC2)C1=O", "note": "[Daprodustat]", "values": [{"measurement": "protein binding", "setting": "[1]", "result": "> 99", "unit": "%"}, {"measurement": "participants reporting AEs", "setting": "[2]; 3 of 6 participants", "result": 50, "unit": "%"}, {"measurement": "Back pain", "setting": "[2]; [7]", "result": "1 (17) n (%)"}, {"measurement": "Decreased appetite", "setting": "[2]; [7]", "result": "1 (17) n (%)"}, {"measurement": "Headache", "setting": "[2]; [7]", "result": "1 (17) n (%)"}, {"measurement": "Musculoskeletal chest pain", "setting": "[2]; [7]", "result": "0 n (%)"}, {"measurement": "Myalgia", "setting": "[2]; [7]", "result": "1 (17) n (%)"}, {"measurement": "Oropharyngeal pain", "setting": "[2]; [7]", "result": "0 n (%)"}, {"measurement": "Back pain", "setting": "[2]; Period 2: 25‐mg oral solution", "result": "0 n (%)"}, {"measurement": "Decreased appetite", "setting": "[2]; Period 2: 25‐mg oral solution", "result": "0 n (%)"}, {"measurement": "Headache", "setting": "[2]; Period 2: 25‐mg oral solution", "result": "1 (17) n (%)"}, {"measurement": "Musculoskeletal chest pain", "setting": "[2]; Period 2: 25‐mg oral solution", "result": "1 (17) n (%)"}, {"measurement": "Myalgia", "setting": "[2]; Period 2: 25‐mg oral solution", "result": "0 n (%)"}, {"measurement": "Oropharyngeal pain", "setting": "[2]; Period 2: 25‐mg oral solution", "result": "1 (17) n (%)"}, {"measurement": "Back pain", "setting": "[2]; Total", "result": "1 (17) n (%)"}, {"measurement": "Decreased appetite", "setting": "[2]; Total", "result": "1 (17) n (%)"}, {"measurement": "Headache", "setting": "[2]; Total", "result": "1 (17) n (%)"}, {"measurement": "Musculoskeletal chest pain", "setting": "[2]; Total", "result": "1 (17) n (%)"}, {"measurement": "Myalgia", "setting": "[2]; Total", "result": "1 (17) n (%)"}, {"measurement": "Oropharyngeal pain", "setting": "[2]; Total", "result": "1 (17) n (%)"}, {"measurement": "deaths or serious adverse events", "setting": "[2]; both treatment periods", "result": "no deaths or serious or significant adverse events reported"}, {"measurement": "deaths or serious adverse events", "setting": "[2]; both treatment periods, listed as daprodustat", "result": "No deaths or other SAEs"}, {"measurement": "total number of AEs reported", "setting": "[2]; both treatment periods, N = 6", "result": 7}, {"measurement": "tolerability", "setting": "[2]; oral tablet, microtracer IV or oral solution dose", "result": "generally well tolerated"}, {"measurement": "AUC0‐inf ratio of plasma daprodustat to plasma total radioactivity", "setting": "[3]; IV administration", "result": 0.40}, {"measurement": "AUC0‐t ratio of plasma daprodustat to plasma total radioactivity", "setting": "[3]; IV administration", "result": 0.40}, {"measurement": "Cmax ratio of plasma daprodustat to plasma total radioactivity", "setting": "[3]; IV administration", "result": 0.68}, {"measurement": "AUC0‐t, total radioactivity", "setting": "[3]; IV infusion, plasma, mean (SD)", "result": "6.62 (1.20) ng Eq • h/mL"}, {"measurement": "Cmax, total radioactivity", "setting": "[3]; IV infusion, plasma, mean (SD)", "result": "3.04 (0.49) ng Eq/mL"}, {"measurement": "AUC0‐inf, total radioactivity", "setting": "[3]; [8]", "result": "6.79 (1.31) ng Eq • h/mL"}, {"measurement": "CL, total radioactivity", "setting": "[3]; [8]", "result": "7.59 (1.50) μg/[ng Eq • h/mL]"}, {"measurement": "Vss, total radioactivity", "setting": "[3]; [8]", "result": "36.3 (19.6) μg/[ng Eq/mL]"}, {"measurement": "t½, total radioactivity", "setting": "[3]; [8]", "result": "8.88 (6.58) h"}, {"measurement": "tmax, total radioactivity", "setting": "[3]; IV infusion, plasma", "result": 0.98, "unit": "h"}, {"measurement": "tmax, total radioactivity", "setting": "[3]; IV infusion, plasma, listed as [^14C]‐GSK1278863", "result": "0.983 (0.983−1.25) h"}, {"measurement": "parent daprodustat as share of total circulating radioactivity in plasma", "setting": "[3]; following IV and oral solution administration, AUC ratio", "result": "Approximately 40%"}, {"measurement": "blood:plasma ratio of total radioactivity", "setting": "[3]; from Cmax in blood and plasma after oral solution", "result": 0.46}, {"measurement": "AUC0‐inf ratio of plasma daprodustat to plasma total radioactivity", "setting": "[3]; oral solution administration", "result": 0.42}, {"measurement": "AUC0‐t ratio of plasma daprodustat to plasma total radioactivity", "setting": "[3]; oral solution administration", "result": 0.43}, {"measurement": "Cmax ratio of plasma daprodustat to plasma total radioactivity", "setting": "[3]; oral solution administration", "result": 0.87}, {"measurement": "Cmax, total radioactivity", "setting": "[3]; oral solution, blood, mean (SD), listed as [^14C]‐GSK1278863", "result": "302 ng Eq/mL and 302 (95.6) ng Eq/mL"}, {"measurement": "tmax, total radioactivity", "setting": "[3]; oral solution, blood", "result": "1.00 (1.00−3.00) h"}, {"measurement": "AUC0‐t, total radioactivity", "setting": "[3]; oral solution, blood, t = 6 hours, mean (SD)", "result": "835 (154) ^b ng Eq • h/mL"}, {"measurement": "AUC0‐inf, total radioactivity", "setting": "[3]; [9]", "result": "2312 (447) ng Eq • h/mL"}, {"measurement": "AUC0‐t, total radioactivity", "setting": "[3]; [9]", "result": "2239 (441) ng Eq • h/mL"}, {"measurement": "t½, total radioactivity", "setting": "[3]; [9]", "result": "62.4 (9.62) h"}, {"measurement": "Cmax, total radioactivity", "setting": "[3]; oral solution, plasma, mean (SD), listed as [^14C]‐GSK1278863", "result": "654 ng Eq/mL and 654 (219) ng Eq/mL"}, {"measurement": "tmax, total radioactivity", "setting": "[3]; oral solution, plasma", "result": 0.76, "unit": "h"}, {"measurement": "tmax, total radioactivity", "setting": "[3]; oral solution, plasma, listed as [^14C]‐GSK1278863", "result": "0.758 (0.500−3.00) h"}, {"measurement": "blood:plasma ratio", "setting": "[4]", "result": 1.23}, {"measurement": "increase in the plasma exposure of daprodustat", "setting": "[5]", "result": 18.6, "unit": "fold"}, {"measurement": "renal clearance", "setting": "[6]", "result": "≈ 0.20 mL/min"}]}]}
